The subject of the experiment is Aedes albopictus (Asian Tiger Mosquito) larvae. As to the kind of experiment: Larval development of Aedes albopictus in sugar-containing aqueous environment. Format: in vivo. The conditions noted are these: single sugar. The procedure: The combinations and ratios of sugars experimentally tested to date have been chosen to be generally equivalent to the combinations and ratios of sugars found in natural nectars. For example, a 5% tangerine nectar equivalent solution is created by dissolving approximately 6.2 grams of sucrose, approximately 1.9 grams of dextrose (glucose) and approximately 1.9 grams of fructose in 200 ml of water. This provides a solution that is approximately 3.1% sucrose, approximately 0.95% dextrose and approximately 0.95% fructose. A 5% strawberry nectar equivalent solution is created by dissolving approximately 0.7 grams of sucrose, approximately 5.3 grams of dextrose (glucose) and approximately 4.0 grams of fructose in 200 ml of water. This provides a solution that is approximately 0.35% sucrose, approximately 2.65% dextrose and approximately 2.0% fructose. A 5% white mangrove nectar equivalent solution is created by dissolving approximately 2.2 grams of sucrose, approximately 3.2 grams of dextrose (glucose) and approximately 4.6 grams of fructose in 200 ml of water. This provides a solution that is approximately 1.1% sucrose, approximately 01.6% dextrose and approximately 2.3% fructose. The three sugars sucrose, dextrose and fructose were also tested independently in 5% aqueous solutions. Lower concentrations of 0.5%, 1.0% and above of the nectar equivalent solutions and independent sugars were also prepared and tested.
In tests using Aedes albopictus (Asian Tiger Mosquito) or Aedes aegypti (Yellow Fever Mosquito) larvae, 5% solutions of each of the tangerine, strawberry and white mangrove nectar equivalent solutions were independently produced using either phosphate buffered saline or pure water in conjunction with the sugars to create the aqueous environments. Larvae were then introduced into the 5% solution aqueous environments in varying numbers. […] In a further test, liver powder was added to the various solutions above as a nutrient to spur larval development.

The values that follow come from patent US7700566B2, “Mosquito control method” (priority 2006, dated 2010).

Regarding `O=C(CO)[C@@H](O)[C@H](O)[C@H](O)CO` [fructose], for the setting “0.5% solution”, the “larvae emerged as adults” value is on record as 100%. Moreover, under “5% solution”, the “larval development past the second instar stage” value is “no larvae developed past the second instar stage”.

Turning to `OC[C@H]1O[C@@](CO)(O[C@H]2O[C@H](CO)[C@@H](O)[C@H](O)[C@H]2O)[C@@H](O)[C@@H]1O` [sucrose], the “larvae emerged as adults” value is, setting by setting: (0.5% solution) 77%; (5% solution) 13%.
